# Reference: patent EP0418113A2, “Microbiological assay kit and method for detecting antibacterial compounds” (ORGENICS LIMITED, priority 1989, dated 1991)
# Several values for one entry are separate records, joined by “and”; a condition that tells them apart may be missing. Equal values may be shown once.
# Experiments:
# [1] = test system: Strep. thermophilus cells; test: Visual antibiotic assay in milk with lyophilized bacteria subjected to osmotic changes (MTT colour); type: cell-based, Streptococcus thermophilus (ATCC 14485)
# Method: Keep cold until use. • (b) To each 1 mL milk specimen or controls add 0.053 gr glucose and 0.1 mL of rehydrated bacterial suspension obtained in (a) above. Mix and incubate at 42°C for 25 min. • (c) Add 2 mL of a chromogenic mixture, containing 0.5 % glucose and 0.175 mg/mL MTT in water to each of the specimens and controls. Mix and incubate for 5 min at 42°C. • (d) Visually examine the color of each specimen and compare it to the color of the control. A color density lower than the color of the control indicates antibiotic activity in the specimen. Table 5 below summarizes the sensitivity of the visual assay for various antibiotic drugs, added to antibiotic free milk specimens.
# [2] = test system: Strep. thermophilus cells; test: Detection of Penicillin G in milk by inhibition of MTT reduction in Strep. thermophilus cells, butanol extraction, OD 570 nm; type: cell-based, Streptococcus thermophilus (ATCC 14485)
# Method: • (a) Streak Streptococcus thermophilus (ATCC 14485) suspension on solid medium, comprising 10 % Difco skim milk, 0,5 % Difco yeast extract, 2 % Agar in distilled water. Distinct colonies should emerge after overnight incubation at 42°C. • (b) Suspended a colony in 10 mL of a liquid medium, comprising 10 % Difco skim milk and 0.5 % Difco yeast extract in water (medium A). Incubate the suspension overnight at 42°C in 12 mL plastic, disposable centrifuge test tubes. • (c) Dilute the resultant suspension 1:10 into medium A and incubate at 42°C until the pH of the medium drops to 5.0 (about 2hrs). The resulting viable cell concentration is 1-2x10⁸/1mL. • (d) Cell concentration can be increased by adding 1N NaOH solution until the pH is raised to 6.2, and continuing incubation at 42°C until the pH drops again to 5.0. This cycle can be repeated 5-7 times until the culture becomes stationary at 1-2x10⁹ cells/mL. • (e) Adjust cell concentration to 1 x 10⁸ cells mL and store at 6-10°C for up to 24 hrs for use in antibiotic assay. Alternatively, distribute 2 mL aliquots of the suspension into 12 mL Penicillin vials (24 x 45 mm), freeze in liquid nitrogen and dry on refrigerated shelves of a stoppering, programmable lyophilizer, employing a 48-72 hour program.
# • (a) Add 2 mL of distilled water to each vial of dried Strep. thermophilus cells, prepared as described in Example 1. Freshly grown Strep. thermophilus at 1x10⁸ cells/mL are used without any treatment. • (b) Construct reaction mixtures for the detection of antibiotic activity in milk specimens from 0.4 mL cell suspension (fresh or rehydrated lyophilized), 1.6 mL milk specimen, 0.05 mL 10 % Difco Yeast Extract and 0.05 mL 10 % Difco Tryptose. Include at least one control milk specimen, known not to contain any antibiotic drug, whenever the Antibiotic assay is employed. • (c) Incube the complete antibiotic exposure mixtures of the control and unknown milk specimens for 25 minutes at 42°C. • (d) Upon completion of the incubation mix 0.4 mL aliquots of all reaction mixtures with 1.6 mL of 0.5 % glucose, 0.175 mg/mL MTT (3-[4,5-Dimethylthiazol-2-yl]-2.5 diphenyltetrazolium bromide) in water, and incubate for 5 minutes. The amount of color resulting from MTT reduction can be estimated by one of the methods detailed in Example 3.
# Transfer a 0.75 mL aliquot of the reaction mixture to a 2 mL microcentrifuge test tube. Add 0.75 mL 1-Butanol. Agitate on a vortex mixer for 15 seconds. Centrifuge the suspension at 10,000 x g for 2.5 minutes. Transfer 0.6 mL the upper clear, colored phase to a clean microcentrifuge test tube, containing 0.6 mL 1-Butanol. Agitate on a vortex mixer for 15 seconds. Centrifuge the suspension at 10,000 x g for 2.5 minutes. Transfer 1 mL the upper clear, colored phase to a clean cuvette. Determine the color density at 570 nm.
# Milk specimens containing 3.5 or 7 mIU/mL of Penicillin G were tested with lyophilized Strep. thermophilus organisms, as described in Example 2. Color development for each antibiotic concentration was carried out either with the MTT solution as described in section (d) of Example 2, which is hypotonic or with the same solution, made isotonic by the addition of sucrose to 0.3M final concentration.
# The amount of MTT color produced was determined by measuring the optical density of butanol extract made from the reaction mixtures (example 3 (d)).
# Milk specimens containing 1-14 mIU:mL Penicillin G, were tested as described in Example 2 for lyophilized bacteria.
# Milk specimens, containing 7 mIU/mL of Penicillin G were tested as described in Example 2 for lyophilized Strep. thermophilus cultivated to high density by pH adjustments. Incubation times of the milk specimens with the indicator bacteria varied between 10 and 25 minutes. Incubation with the MTT solution varied between 5 and 10 minutes. The amount of MTT color produced was determined by measuring the optical density of butanol extract made from the reaction mixtures (example 3 (d)). […]
# [3] = test system: B. stearothermophilus ATCC 10149; test: Detection of Penicillin G in milk with B. stearothermophilus cells (MTT reduction); type: cell-based, Bacillus stearothermophilus; conditions: 30 min at 55°C + 10 min MTT
# Method: The whole reaction mixture is filtered through glass filter paper circles (e.g. Whatman GF/F, 2.5 cm diameter). The color can be estimated visually or measured by a reflecting densitometer, such as Gretag D182 (Gretag Ltd., CH-8105 Regensdorf, Switzerland). • (a) Inoculate B. stearothermophilus ATCC 10149 into a liquid medium constructed from 10 % Difco skim milk and 0.5 % Difco yeast extract in water. Incubate at 55°C with constant (shaking) for 18 hrs. • (b) Dilute the overnight culture 1:20 into fresh liquid medium and continue shaking at 55°C for 2 hrs. • (c) Dilute 1:10 into liquid medium fortified with 0.8M sucrose and continue shaking at 55°C for 2.5 hrs. […] Use immediately or keep on ice until ready to continue. • (d) Mix each Penicillin containing milk specimen with an equal volume of B. stearothermophilus suspension, as obtained in Step (c). Shake for 30 minutes at 55°C. • (e) Add MTT solution, as described in Example 2 (d) and continue shaking for 10 minutes at 55°C. • (f) Determine the amount of MTT dye as described in Example 3(b).
# [4] = test system: B. stearothermophilus (ATCC 10149) cells; test: Inhibition of MTT colour formation in B. stearothermophilus after pre-incubation in isotonic or hypertonic medium (Tryptic Soy broth); type: cell-based, Bacillus stearothermophilus; conditions: specimen containing 40 mIU/mL Penicillin G
# Method: Logarithmic B. stearothermophilus (ATCC 10149) cells were suspended in Difco Tryptic Soy broth with or without 0.8M sucrose, and incubated at 55°C with shaking for 1 hr. […] Control reaction mixture was constructed with bacterial suspension and Tryptic Soy broth. Following a 30 min incubation at 55°C, all reaction mixtures were diluted 1:5 into […] MTT, 0.5 glucose in water and incubation continued for 5 minutes. The color suspension was clarified by vigorously mixing 0.5 mL aliquots with 0.7 mL isoamyl alcohol containing 0.04N hydrochloric acid. The optical density of the clarified mixtures was measured at 570 nm and the inhibition of color formation, relative to the control was calculated and is presented in Table 7.
# [5] = test system: Strep. thermophilus cells; test: Detection of Penicillin G in milk by inhibition of MTT reduction in Strep. thermophilus cells, butanol extraction, OD 570 nm; type: cell-based, Streptococcus thermophilus (ATCC 14485); conditions: isotonic MTT solution (0.3M sucrose); Penicillin concentration 4; lyophilized cells
# [6] = added to antibiotic free milk, 25 min at 42°C + 5 min MTT
# [7] = Penicillin Concentration 1 mIU/mL, lyophilized cells
# [8] = Penicillin Concentration 2 mIU/mL, lyophilized cells
# [9] = Penicillin Concentration 4 mIU/mL, lyophilized cells
# [10] = Penicillin Concentration 7 mIU/mL, lyophilized cells
# [11] = Penicillin Concentration 14 mIU/mL, lyophilized cells
# [12] = dried (lyophilized) cells, 7 mIU/mL Penicillin G in milk
# [13] = hypotonic MTT solution, Penicillin concentration 4, lyophilized cells
# [14] = hypotonic MTT solution, Penicillin concentration 7, lyophilized cells
# [15] = isotonic MTT solution (0.3M sucrose), Penicillin concentration 7, lyophilized cells
# [16] = Penicillin G Concentration 16 mIU/mL in milk
# [17] = Penicillin G Concentration 32 mIU/mL in milk
compound,measurement,setting,value
O=C(N[C@H](CO)[C@H](O)c1ccc([N+](=O)[O-])cc1)C(Cl)Cl [Chloramphenicol],Sensitivity (lowest concentration causing visually detectable decrease in color),[1]; [6],2.5 µg/mL
Cc1onc(-c2ccccc2Cl)c1C(=O)N[C@@H]1C(=O)N2[C@@H]1SC(C)(C)[C@@H]2C(=O)O [Cloxacillin],Sensitivity (lowest concentration causing visually detectable decrease in color),[1]; [6],0.002 µg/mL
Polymyxin,Sensitivity (lowest concentration causing visually detectable decrease in color),[1]; [6],10 µg/mL
CN(C)[C@@H]1C(O)=C(C(N)=O)C(=O)[C@@]2(O)C(O)=C3C(=O)c4c(O)cccc4[C@@](C)(O)[C@H]3C[C@@H]12 [Tetracycline],Sensitivity (lowest concentration causing visually detectable decrease in color),[1]; [6],0.2 µg/mL
CC1(C)S[C@@H]2[C@H](NC(=O)Cc3ccccc3)C(=O)N2[C@H]1C(=O)O [Penicillin G],Inhibition (%),"[2]; 7 mIU/mL Penicillin G, first incubation 10 min, MTT 5 min (total 15 min), lyophilized high-density cells",7%
same,Inhibition (%),"[2]; 7 mIU/mL Penicillin G, first incubation 10 min, MTT 10 min (total 20 min), lyophilized high-density cells",40% and 42%
same,Inhibition (%),"[2]; 7 mIU/mL Penicillin G, first incubation 15 min, MTT 5 min (total 20 min), lyophilized high-density cells",21%
same,Inhibition (%),"[2]; 7 mIU/mL Penicillin G, first incubation 15 min, MTT 10 min (total 25 min), lyophilized high-density cells",42%
same,Inhibition (%),"[2]; 7 mIU/mL Penicillin G, first incubation 20 min, MTT 5 min (total 25 min), lyophilized high-density cells",77%
same,Inhibition (%),"[2]; 7 mIU/mL Penicillin G, first incubation 20 min, MTT 10 min (total 30 min), lyophilized high-density cells",53%
same,Inhibition (%),"[2]; 7 mIU/mL Penicillin G, first incubation 25 min, MTT 5 min (total 30 min), lyophilized high-density cells",62%
same,Inhibition (%),"[2]; 7 mIU/mL Penicillin G, first incubation 25 min, MTT 10 min (total 35 min), lyophilized high-density cells",57%
same,Inhibition (%),[2]; [7],17%
same,OD at 570 nm,[2]; [7],0.098
same,Inhibition (%),[2]; [8],32%
same,OD at 570 nm,[2]; [8],0.080
same,Inhibition (%),[2]; [9],56%
same,OD at 570 nm,[2]; [9],0.052
same,Inhibition (%),[2]; [10],74%
same,OD at 570 nm,[2]; [10],0.031
same,Inhibition (%),[2]; [11],80%
same,OD at 570 nm,[2]; [11],0.024
same,% inhibition,[2]; [12],60%
same,OD 570 nm in 7 mIU/mL Penicillin Specimen,[2]; [12],0.062
same,% inhibition,"[2]; fresh cells, 7 mIU/mL Penicillin G in milk",55%
same,OD 570 nm in 7 mIU/mL Penicillin Specimen,"[2]; fresh cells, 7 mIU/mL Penicillin G in milk, 25 min at 42°C + 5 min MTT",0.088
same,% inhibition,[2]; [13],56%
same,OD at 570 nm,[2]; [13],0.052
same,% inhibition,[2]; [14],74%
same,OD at 570 nm,[2]; [14],0.031
same,OD at 570 nm,"[2]; isotonic MTT solution (0.3M sucrose), Penicillin concentration 4, lyophilized cells",0.113
same,% inhibition,[2]; [15],34%
same,OD at 570 nm,[2]; [15],0.077
same,concentration detectable in milk,"[2]; lyophilized cells, butanol extraction, OD 570 nm",1 mIU/mL
same,Sensitivity (lowest concentration causing visually detectable decrease in color),[1]; [6],3.5 mIU/mL
same,% inhibition,[3]; [16],34%
same,OD at 570 nm,[3]; [16],0.250
same,% inhibition,[3]; [17],59%
same,OD at 570 nm,[3]; [17],0.155
same,% Inhibition with,[4]; hypertonic pre-incubation medium (0.8M sucrose),54%
same,% Inhibition with,[4]; isotonic pre-incubation medium (without sucrose),10%
same,% inhibition,[5],3%
Nc1ccc(S(=O)(=O)Nc2ncccn2)cc1 [Sulfadiazine],Sensitivity (lowest concentration causing visually detectable decrease in color),"[1]; test conducted in presence of 10 ug.mL trimethoprim, added to the milk specimen",20 ug/mL^b
CN(C)[C@@H]1C(O)=C(C(N)=O)C(=O)[C@@]2(O)C(O)=C3C(=O)c4c(O)cccc4[C@@](C)(O)[C@H]3[C@H](O)[C@@H]12 [Oxytetracycline],Sensitivity (lowest concentration causing visually detectable decrease in color),[1]; [6],0.4 µg/mL
CC1(C)S[C@@H]2[C@H](NC(=O)[C@H](N)c3ccccc3)C(=O)N2[C@H]1C(=O)O [Ampicillin],Sensitivity (lowest concentration causing visually detectable decrease in color),[1]; [6],0.002 µg/mL
